Experimental data taken from PMC7144397 (Molecules, 2020).

Target: myotoxic Asp-49 phospholipase A2 (PLA2) from Crotalus durissus cumanensis venom
Experiment: chromogenic PLA2 assay, […] nm, 96-well plate
Format: biochemical
Conditions: substrate 4-nitro-3-octanoyloxybenzoic acid type (4N3OBA, 20 μL of 10 mM); 10 mM Tris-HCl, 10 mM CaCl2, 100 mM NaCl, pH 8.0; 37 °C; 20 μg PLA2, 30 min pre-incubation; from linear portion of the dose-r

Structure (SMILES): O=[N+]([O-])c1ccc(C(=S)SCc2ccccc2)cc1 [I, Benzyl 4-nitrobenzenecarbodithioate]
- IC50: 55.6 ± 4.6 µM
